target: T1, CDK2/Cyclin E complex (Homo sapiens, UniProt P24941); experiment: CDK2/Cyclin E fluorescence-based microfluidic mobility shift assay (CDK2 Biochemical Caliper Assay); details: read-out: Biochemical CDK2/CyclinE Caliper IC50
T1 construct: purchased Eurofins 14-475
Protocol: Compounds of the present disclosure were tested in a CDK2/Cyclin E fluorescence-based microfluidic mobility shift assay (PerkinElmer).
The active wild type CDK2/Cyclin E complex was purchased from Eurofins (14-475). Compound stocks were prepared in DMSO and were serially diluted into 11 concentrations by 3-fold dilution. […] Compounds were incubated in the presence of CDK2/Cyclin E complex and ATP for 30 minutes at room temperature. Catalytic reaction was initiated with the addition of 5 uL of a 4× peptide solution containing 6 uM fluorescently label substrate peptide, FL Peptide 18 (aa sequence 5-FAM-QSPKKG, PerkinElmer, 760362) in 1× reaction buffer.
The final reaction components were 0.1 nM CDK2/Cyclin E, 2000 uM ATP and 1.5 uM FL Peptide 18 and 1% DMSO. Reactions were incubated RT for 20 hr and terminated with 75 uL of a stopping solution containing 0.5 M EDTA. Samples were analyzed using a LabChip EZ reader (PerkinElmer).

Structure (SMILES)	IC50
Cc1cc(CC(=O)Nc2cc([C@@H]3C[C@H](OC(=O)NC(C)C)CO3)[nH]n2)on1 (single isomer, unassigned) [Example 345]	100 to 250 nM
Cc1cc(CC(=O)Nc2cc([C@H]3C[C@@H](OC(=O)NC(C)C)CO3)[nH]n2)on1 (single isomer, unassigned) [Example 346]	100 to 250 nM
Cc1cc(CC(=O)Nc2cc([C@@H]3CC[C@H](n4cc(C)[nH]c4=O)C3)[nH]n2)on1 (single isomer, unassigned) [Example 349]	250 to 1000 nM
Cc1cc(CC(=O)Nc2cc([C@@H]3CC[C@H](Oc4ccccc4)C3)[nH]n2)on1 (single isomer, unassigned) [Example 350]	1000 to 100000 nM
Cc1cc(CC(=O)Nc2cc([C@H]3CC[C@@H](Oc4ccccc4)C3)[nH]n2)on1 (single isomer, unassigned) [Example 351]	100 to 250 nM
Cc1cc(CC(=O)Nc2cc([C@H]3CC[C@@H](OC(=O)CC(C)C)C3)[nH]n2)on1 (single isomer, unassigned) [Example 352]	≤ 100 nM
Cc1cc(CC(=O)Nc2cc([C@@H]3CC[C@H](OC(=O)CC(C)C)C3)[nH]n2)on1 (single isomer, unassigned) [Example 353]	≤ 100 nM
Cc1cncc(O[C@H]2CC[C@@H](c3cc(NC(=O)Cc4cc(C)no4)n[nH]3)C2)c1 (single isomer, unassigned) [Example 354]	1000 to 100000 nM
Cc1cncc(O[C@@H]2CC[C@H](c3cc(NC(=O)Cc4cc(C)no4)n[nH]3)C2)c1 (single isomer, unassigned) [Example 355]	250 to 1000 nM
Cc1ccc(O[C@H]2CC[C@@H](c3cc(NC(=O)Cc4cc(C)no4)n[nH]3)C2)cn1 (single isomer, unassigned) [Example 356]	250 to 1000 nM
Cc1ccc(O[C@@H]2CC[C@H](c3cc(NC(=O)Cc4cc(C)no4)n[nH]3)C2)cn1 (single isomer, unassigned) [Example 357]	1000 to 100000 nM
Cc1cc(CC(=O)Nc2cc([C@@H]3CC[C@H](Oc4cccnc4C)C3)[nH]n2)on1 (single isomer, unassigned) [Example 358]	250 to 1000 nM
Cc1cc(CC(=O)Nc2cc([C@H]3CC[C@@H](Oc4cccnc4C)C3)[nH]n2)on1 (single isomer, unassigned) [Example 359]	100 to 250 nM
Cc1cc(CC(=O)Nc2cc([C@H]3CC[C@@H](Oc4cncnc4)C3)[nH]n2)on1 (single isomer, unassigned) [Example 362]	1000 to 100000 nM
Cc1cc(CC(=O)Nc2cc([C@@H]3CC[C@H](Oc4cncnc4)C3)[nH]n2)on1 (single isomer, unassigned) [Example 363]	250 to 1000 nM
COCc1cc(C(=O)Nc2cc([C@H]3CC[C@@H](Oc4ccccc4)C3)[nH]n2)n(C)n1 (single isomer, unassigned) [Example 364]	1000 to 100000 nM
COCc1cc(C(=O)Nc2cc([C@@H]3CC[C@H](Oc4ccccc4)C3)[nH]n2)n(C)n1 (single isomer, unassigned) [Example 365]	250 to 1000 nM

Structure (SMILES)	IC50
COCc1cc(C(=O)Nc2cc([C@H]3CC[C@@H](Oc4cnccc4C)C3)[nH]n2)n(C)n1 (single isomer, unassigned) [Example 366]	1000 to 100000 nM
COCc1cc(C(=O)Nc2cc([C@@H]3CC[C@H](Oc4cnccc4C)C3)[nH]n2)n(C)n1 (single isomer, unassigned) [Example 367]	100 to 250 nM
Cc1cc(CC(=O)Nc2cc([C@H]3CC[C@@H](Cc4nncn4C(C)C)C3)[nH]n2)on1 (single isomer, unassigned) [Example 370]	1000 to 100000 nM
Cc1cc(CC(=O)Nc2cc([C@@H]3CC[C@H](Cc4nncn4C(C)C)C3)[nH]n2)on1 (single isomer, unassigned) [Example 371]	1000 to 100000 nM
Cc1cc(CC(=O)Nc2cc([C@@H]3CC[C@@H](Cc4nncn4C(C)C)C3)[nH]n2)on1 (single isomer, unassigned) [Example 372]	1000 to 100000 nM
Cc1cc(CC(=O)Nc2cc([C@H]3CC[C@H](Cc4nncn4C(C)C)C3)[nH]n2)on1 (single isomer, unassigned) [Example 373]	100 to 250 nM
CC(C)NC(=O)O[C@@H]1CC[C@H](c2cc(NC(=O)CN(C)c3ncnc4nc[nH]c34)n[nH]2)C1 (single isomer, unassigned) [Example 374]	100 to 250 nM
CC(C)NC(=O)O[C@H]1CC[C@@H](c2cc(NC(=O)CN(C)c3ncnc4nc[nH]c34)[nH]n2)C1 (single isomer, unassigned) [Example 375]	≤ 100 nM
Cc1cc(CC(=O)Nc2cc([C@@H]3CC[C@@H](O)C3)[nH]n2)on1 (single isomer, unassigned) [Example 376]	1000 to 100000 nM
Cc1cc(CC(=O)Nc2cc([C@H]3CC[C@H](O)C3)[nH]n2)on1 (single isomer, unassigned) [Example 377]	1000 to 100000 nM
Cc1cc(CC(=O)Nc2cc([C@@H]3CC[C@H](n4cc(C(C)C)[nH]c4=O)C3)[nH]n2)on1 (single isomer, unassigned) [Example 378]	1000 to 100000 nM
Cc1cc(CC(=O)Nc2cc([C@@H]3CC[C@H](Oc4cnccc4C)C3)[nH]n2)on1 (single isomer, unassigned) [Example 379]	250 to 1000 nM
Cc1cc(CC(=O)Nc2cc([C@H]3CC[C@@H](Oc4cnccc4C)C3)[nH]n2)on1 (single isomer, unassigned) [Example 380]	100 to 250 nM
Cc1cc(CC(=O)Nc2cc([C@H]3CC[C@@H](Oc4cnccc4C4CC4)C3)[nH]n2)on1 (single isomer, unassigned) [Example 381]	≤ 100 nM
Cc1cc(CC(=O)Nc2cc([C@@H]3CC[C@H](Oc4cnccc4C4CC4)C3)[nH]n2)on1 (single isomer, unassigned) [Example 382]	250 to 1000 nM
COCc1cc(C(=O)Nc2cc([C@H]3CC[C@@H](Oc4cncc(C)c4)C3)[nH]n2)n(C)n1 (single isomer, unassigned) [Example 383]	1000 to 100000 nM
COCc1cc(C(=O)Nc2cc([C@@H]3CC[C@H](Oc4cncc(C)c4)C3)[nH]n2)n(C)n1 (single isomer, unassigned) [Example 384]	1000 to 100000 nM

The next lines start with the values.

IC50	Structure (SMILES)
1000 to 100000 nM	COCc1cc(C(=O)Nc2cc([C@H]3CC[C@@H](Oc4cccnc4C)C3)[nH]n2)n(C)n1 (single isomer, unassigned) [Example 385]
250 to 1000 nM	COCc1cc(C(=O)Nc2cc([C@@H]3CC[C@H](Oc4cccnc4C)C3)[nH]n2)n(C)n1 (single isomer, unassigned) [Example 386]
1000 to 100000 nM	COCc1cc(C(=O)Nc2cc([C@H]3CC[C@@H](Oc4cncnc4)C3)[nH]n2)n(C)n1 (single isomer, unassigned) [Example 387]
1000 to 100000 nM	COCc1cc(C(=O)Nc2cc([C@@H]3CC[C@H](Oc4cncnc4)C3)[nH]n2)n(C)n1 (single isomer, unassigned) [Example 388]
250 to 1000 nM	Cc1cc(CC(=O)Nc2cc([C@H]3CC[C@@H](Oc4ccccc4C(C)C)C3)[nH]n2)on1 (single isomer, unassigned) [Example 389]
100 to 250 nM	Cc1cc(CC(=O)Nc2cc([C@@H]3CC[C@H](Oc4ccccc4C(C)C)C3)[nH]n2)on1 (single isomer, unassigned) [Example 390]
≤ 100 nM	COCc1cc(C(=O)Nc2cc([C@H]3CC[C@@H](Oc4cnccc4C4CC4)C3)[nH]n2)n(C)n1 (single isomer, unassigned) [Example 393]
100 to 250 nM	COCc1cc(C(=O)Nc2cc([C@@H]3CC[C@H](Oc4cnccc4C4CC4)C3)[nH]n2)n(C)n1 (single isomer, unassigned) [Example 394]
1000 to 100000 nM	COCc1cc(C(=O)Nc2cc([C@H]3CC[C@@H](Oc4ccc(C)nc4)C3)[nH]n2)n(C)n1 (single isomer, unassigned) [Example 395]
1000 to 100000 nM	COCc1cc(C(=O)Nc2cc([C@@H]3CC[C@H](Oc4ccc(C)nc4)C3)[nH]n2)n(C)n1 (single isomer, unassigned) [Example 396]
≤ 100 nM	COCc1nc2ccnc(Nc3cc([C@H]4CC[C@@H](OC(=O)NC(C)C)C4)[nH]n3)c2s1 (single isomer, unassigned) [Example 398]
≤ 100 nM	COCc1nc2ccnc(Nc3cc([C@@H]4CC[C@H](OC(=O)NC(C)C)C4)[nH]n3)c2s1 (single isomer, unassigned) [Example 399]
≤ 100 nM	CC(C)NC(=O)O[C@@H]1CC[C@H](c2cc(Nc3ncnc4ncccc34)n[nH]2)C1 (single isomer, unassigned) [Example 400]
≤ 100 nM	CC(C)NC(=O)O[C@H]1CC[C@@H](c2cc(Nc3ncnc4ncccc34)n[nH]2)C1 (single isomer, unassigned) [Example 401]
100 to 250 nM	Cc1cnn(-c2ccnc(Nc3cc([C@H]4CC[C@@H](OC(=O)NC(C)C)C4)[nH]n3)c2)c1 (single isomer, unassigned) [Example 402]
100 to 250 nM	Cc1cnn(-c2ccnc(Nc3cc([C@@H]4CC[C@H](OC(=O)NC(C)C)C4)[nH]n3)c2)c1 (single isomer, unassigned) [Example 403]
≤ 100 nM	c1cc2ncsc2c(Nc2cc([C@H]3CC[C@@H](Oc4nscc4C4CC4)C3)[nH]n2)n1 (single isomer, unassigned) [Example 404]
≤ 100 nM	c1cc2ncsc2c(Nc2cc([C@@H]3CC[C@H](Oc4nscc4C4CC4)C3)[nH]n2)n1 (single isomer, unassigned) [Example 405]
250 to 1000 nM	Cc1cc(CC(=O)Nc2cc([C@@H]3CC[C@H](Cc4cn[nH]c4C(C)C)C3)[nH]n2)on1 (single isomer, unassigned) [Example 408]
